Test results: patent publication US10294202B2, “Pyrrolidinones as herbicides” (FMC Corporation, priority 2013, dated 2019)

What was measured:
[1] = test system: lambsquarters; assay: Test E preemergence herbicide test; type: in vivo, Chenopodium album; parameters: key: 0 = no effect, 100 = complete control
Source text: Seeds of plant species selected from corn (Zea mays), soybean (Glycine max), velvetleaf (Abutilon theophrasti), lambsquarters (Chenopodium album), wild poinsettia (Euphorbia heterophylla), pigweed, palmer (palmer pigweed, Amaranthus palmeri), waterhemp (common waterhemp, Amaranthus rudis), surinam grass (Brachiaria decumbens), crabgrass, large (large crabgrass, Digitaria sanguinalis), crabgrass, Brazil (Brazilian crabgrass, Digitaria horizontalis), panicum, fall (fall panicum, Panicum dichotomiflorum), foxtail, giant (giant foxtail, Setaria faberii), foxtail, green (green foxtail, Setaria viridis), goosegrass (Eleusine indica), johnsongrass (Sorghum halepense), ragweed (common ragweed, Ambrosia elatior), barnyardgrass (Echinochloa crus-galli), sandbur (southern sandbur, Cenchrus echinatus), arrowleaf […] rhombifolia), ryegrass, Italian (Italian ryegrass, Lolium multiflorum), dayflower, VA (Virginia dayflower, Commelina virginica), field bindweed (Convolvulus arvensis), morningglory (Ipomoea coccinea), nightshade (eastern black nightshade, Solanum ptycanthum), kochia (Kochia scoparia), nutsedge, yellow (yellow nutsedge, Cyperus esculentus), cocklebur (common cocklebur, Xanthium strumarium), smartweed (ladysthumb smartweed, Polygonum Persicaria) and beggarticks (hairy beggarticks, Bidens pilosa), were planted into a silt loam soil and treated preemergence with test chemicals formulated in a non-phytotoxic solvent mixture which included a surfactant. Treated plants and controls were maintained in a greenhouse for 21 days, after which time all species were compared to controls and visually evaluated. Plant response ratings, summarized in Table E, are based on a scale of 0 to 100 where 0 is no effect and 100 is complete control. A dash (-) response means no test result.

[2] = test system: oilseed rape; assay: Test D pre-/postemergence herbicide test; type: in vivo, Brassica napus; conditions: for Plant response rating: Postemergence, Oilseed Rape, scale 0 to 100; for Plant response rating, Oilseed Rape: Preemergence, scale 0 to 100 (0 no effect, 100 complete control)
In short: (§1)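 Seeds sown in silt loam were sprayed preemergence with test chemicals in a non-phytotoxic solvent mixture with surfactant. Postemergence plants grown in peat/vermiculite medium were treated at 2–18 cm (1- to 4-leaf stage). After 7 to 21 days in a controlled environment, injury was rated visually versus controls, 0 (no effect) to 100 (complete control).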

[3] = test system: radish, wild; assay: Test D pre-/postemergence herbicide test; type: in vivo, Raphanus raphanistrum; conditions: for Plant response rating: Postemergence, Radish, Wild, scale 0 to 100; for Plant response rating, Radish, Wild: Preemergence, scale 0 to 100 (0 no effect, 100 complete control)
In short: as §1

[4] = test system: foxtail, green; assay: Test D pre-/postemergence herbicide test; type: in vivo, Setaria viridis; conditions: for Plant response rating: Foxtail, Green, scale 0 to 100; for Plant response rating, Foxtail, Green: scale 0 to 100 (0 no effect, 100 complete control)
Source text: (§2) Seeds of plant species selected from bluegrass (annual bluegrass, Poa annua), blackgrass (Alopecurus myosuroides), canarygrass (littleseed canarygrass, Phalaris minor), chickweed (common chickweed, Stellaria media), galium (catchweed bedstraw, Galium aparine), bromegrass, downy (downy bromegrass, Bromus tectorum), field poppy (Papaver rhoeas), field violet (Viola arvensis), foxtail, green (green foxtail, Setaria viridis), deadnettle (henbit deadnettle, Lamium amplexicaule), ryegrass, Italian (Italian ryegrass, Lolium multiflorum), kochia (Kochia scoparia), lambsquarters (Chenopodium album), oilseed rape (Brassica napus), pigweed (Amaranthus retroflexus), chamomile (scentless chamomile, Matricaria inodora), Russian thistle (Salsola kali), speedwell (bird's-eye speedwell, Veronica persica), barley, spring (spring barley, Hordeum vulgare), wheat, spring (spring wheat, Triticum aestivum), buckwheat, wild (wild buckwheat, Polygonum convolvulus), mustard, wild (wild mustard, Sinapis arvensis), oat, wild (wild oat, Avena fatua), radish, wild (wild radish, Raphanus raphanistrum), […]), barley, winter (winter barley, Hordeum vulgare), and wheat, winter (winter wheat, Triticum aestivum) were planted into a silt loam soil and treated preemergence with test chemicals formulated in a non-phytotoxic solvent mixture which included a surfactant. At the same time, these species were planted in pots containing Redi-Earth® planting medium (Scotts Company, 14111 Scottslawn Road, Marysville, Ohio 43041) comprising spaghnum peat moss, vermiculite, wetting agent and starter nutrients and treated with postemergence applications of the test chemicals formulated in the same manner. Plants ranged in height from 2 to 18 cm (1- to 4-leaf stage). Treated plants and controls were maintained in a controlled growth environment for 7 to 21 days after which time all species were compared to controls and visually evaluated. Plant response ratings, summarized in Table D, are based on a scale of 0 to 100 where 0 is no effect and 100 is complete control. A dash (-) response means no test result.

[5] = test system: deadnettle; assay: Test D pre-/postemergence herbicide test; type: in vivo, Lamium amplexicaule; conditions: for Plant response rating: Deadnettle, scale 0 to 100; for Plant response rating, Deadnettle: scale 0 to 100 (0 no effect, 100 complete control)
Source text: as §2

Compound	Plant response rating, Lambsquarters ([1]; 31 g ai/ha)	Plant response rating, Lambsquarters ([1]; 62 g ai/ha)	Plant response rating, Lambsquarters ([1]; 125 g ai/ha)	Plant response rating, Lambsquarters ([1]; 250 g ai/ha)	Plant response rating ([2]; 31 g ai/ha)	Plant response rating ([2]; 62 g ai/ha)	Plant response rating ([2]; 125 g ai/ha)	Plant response rating ([2]; 250 g ai/ha)	Plant response rating, Oilseed Rape ([2]; 62 g ai/ha)	Plant response rating, Oilseed Rape ([2]; 125 g ai/ha)	Plant response rating, Oilseed Rape ([2]; 31 g ai/ha)	Plant response rating, Oilseed Rape ([2]; 250 g ai/ha)	Plant response rating ([3]; 31 g ai/ha)	Plant response rating ([3]; 62 g ai/ha)	Plant response rating ([3]; 125 g ai/ha)	Plant response rating ([3]; 250 g ai/ha)	Plant response rating, Radish, Wild ([3]; 62 g ai/ha)	Plant response rating, Radish, Wild ([3]; 125 g ai/ha)	Plant response rating, Radish, Wild ([3]; 31 g ai/ha)	Plant response rating, Radish, Wild ([3]; 250 g ai/ha)	also measured
O=C1NCC(c2ccc(C(F)(F)F)cc2)C1C(=O)Nc1cccc(F)c1F (racemic) [Compound 202]	0	98	98	98	60	70	60	55	35	45	0	75	50	70	75	70	0	0	0	80	Plant response rating ([4]; Postemergence, 31 g ai/ha): 60; Plant response rating ([4]; Postemergence, 62 g ai/ha): 65; Plant response rating ([4]; Postemergence, 125 g ai/ha): 70; Plant response rating ([4]; Postemergence, 250 g ai/ha): 70; Plant response rating, Foxtail, Green ([4]; Preemergence, 62 g ai/ha): 90; Plant response rating, Foxtail, Green ([4]; Preemergence, 31 g ai/ha): 90; Plant response rating ([4]; Preemergence, 125 g ai/ha): 98; Plant response rating ([4]; Preemergence, 250 g ai/ha): 95; Plant response rating ([5]; Postemergence, 31 g ai/ha): 5; Plant response rating ([5]; Postemergence, 62 g ai/ha): 35; Plant response rating ([5]; Postemergence, 125 g ai/ha): 60; Plant response rating ([5]; Postemergence, 250 g ai/ha): 70; Plant response rating, Deadnettle ([5]; Preemergence, 62 g ai/ha): 65; Plant response rating, Deadnettle ([5]; Preemergence, 31 g ai/ha): 40; Plant response rating ([5]; Preemergence, 125 g ai/ha): 80; Plant response rating ([5]; Preemergence, 250 g ai/ha): 85
O=C1NCC(c2ccc(C(F)(F)F)cc2)C1C(=O)Nc1cccc(F)c1F (stereo not shown) [Compound 80, N-(2,3-difluorophenyl)-2-oxo-4-[4-(trifluoromethyl)phenyl]-3-pyrrolidinecarboxamide]	80	85	90	90	30	50	45	60	10	10	0	30	50	70	35	60	30	30	15	70	Plant response rating, Lambsquarters ([1]; 16 g ai/ha): 50; Plant response rating ([4]; Postemergence, 31 g ai/ha): 45; Plant response rating ([4]; Postemergence, 62 g ai/ha): 45; Plant response rating ([4]; Postemergence, 125 g ai/ha): 65; Plant response rating ([4]; Postemergence, 250 g ai/ha): 65; Plant response rating, Foxtail, Green ([4]; Preemergence, 62 g ai/ha): 65; Plant response rating, Foxtail, Green ([4]; Preemergence, 31 g ai/ha): 20; Plant response rating ([4]; Preemergence, 125 g ai/ha): 75; Plant response rating ([4]; Preemergence, 250 g ai/ha): 80; Plant response rating ([5]; Postemergence, 31 g ai/ha): 70; Plant response rating ([5]; Postemergence, 62 g ai/ha): 60; Plant response rating ([5]; Postemergence, 125 g ai/ha): 70; Plant response rating ([5]; Postemergence, 250 g ai/ha): 40; Plant response rating, Deadnettle ([5]; Preemergence, 62 g ai/ha): 0; Plant response rating, Deadnettle ([5]; Preemergence, 31 g ai/ha): 0; Plant response rating ([5]; Preemergence, 125 g ai/ha): 65; Plant response rating ([5]; Preemergence, 250 g ai/ha): 70
